Test results published in ChEMBL document CHEMBL1152309, “Isolation of 2-pyridone alkaloids from a New Zealand marine-derived penicillium species” (J Nat Prod, 2009).
Values after ≈ are worked out from the molar mass of the structure shown.

Experiments:
P388 = test: Cytotoxicity against mouse P388 cells; format: functional, cell-based
Bacillus subtilis = test: Antibacterial activity against Bacillus subtilis at 30 ug/disk by disc-diffusion assay; format: functional; conditions: read-out: IZ
Candida albicans = test: Antifungal activity against Candida albicans at 30 ug/disk by disc-diffusion assay; format: functional; conditions: read-out: IZ

Which results are given for C[C@@H]1C[C@H](C)[C@H]2c3c(ccn(O)c3=O)O[C@H](C)[C@@]2(C)C1?
IC50 (P388): 1.8 µg/mL (≈ 6.49 µM); zone of inhibition at 30 µg/disc (Bacillus subtilis): 8 mm; zone of inhibition at 30 µg/disc (Candida albicans): 11 mm

For C[C@@H]1C[C@H](C)[C@H]2c3c(cc[nH]c3=O)O[C@H](C)[C@@]2(C)C1, which IC50 (P388) is on record?
The IC50 was > 12.5 µg/mL.

For C[C@@H]1C[C@H](C)[C@@H](c2c(O)cc[nH]c2=O)[C@H](C)[C@@](C)(O)C1 [DEOXYAKANTHOMYCIN], which IC50 (P388) is on record?
Its IC50 is > 12.5 µg/mL.
